Assays:
in vitro = format: cell-based, human; details: human
[1] = system: PC12 cells expressing poly(Q)103-Htt-EGFP; test: Poly(Q) toxicity & viability analysis (cellular model of Huntington's disease); format: cell-based, rat; details: for M = Huntington's poly-Q toxicity attenuation: score; for K = Huntington's poly-Q toxicity attenuation: summary score
Method: Viability assays were performed as described before (Aiken et al., 2004). PC12 cells that stably express the inducible poly(Q)103-Htt-EGFP were grown in culture. […] Cell viability was analyzed 48 hrs later by measuring ATP content with CellTiter-Glo.
Toxic protein aggregation is a key feature of many age-related neurodegenerative diseases, including Alzheimer's and Huntington's disease (Caughey and Lansbury, 2003; Ross and Poirier, 2004). A number of animal models (Phillips et al., 2009) and cell models (Schlachetzki et al., 2013) have been established to study these diseases. For this purpose, PC12 rat pheochromocytoma cells display neuronal features and produce neurotransmitters and have been used extensively to study neuronal phenotypes, including synaptic transmission and neurological diseases. […] In this model, induced expression of poly(Q)103-Htt-EGFP could lead to the formation of aggregates and exert substantial toxicity in cells.

human protein targets = details: PubChem database queries; cited from earlier work
SENP6 = molecular target: T1, SENP6 (Homo sapiens, UniProt Q9GZR1); details: 2 screens; 10.0 μM or 12. μM; cited from earlier work
T1 sequence (Q9GZR1 1-1112): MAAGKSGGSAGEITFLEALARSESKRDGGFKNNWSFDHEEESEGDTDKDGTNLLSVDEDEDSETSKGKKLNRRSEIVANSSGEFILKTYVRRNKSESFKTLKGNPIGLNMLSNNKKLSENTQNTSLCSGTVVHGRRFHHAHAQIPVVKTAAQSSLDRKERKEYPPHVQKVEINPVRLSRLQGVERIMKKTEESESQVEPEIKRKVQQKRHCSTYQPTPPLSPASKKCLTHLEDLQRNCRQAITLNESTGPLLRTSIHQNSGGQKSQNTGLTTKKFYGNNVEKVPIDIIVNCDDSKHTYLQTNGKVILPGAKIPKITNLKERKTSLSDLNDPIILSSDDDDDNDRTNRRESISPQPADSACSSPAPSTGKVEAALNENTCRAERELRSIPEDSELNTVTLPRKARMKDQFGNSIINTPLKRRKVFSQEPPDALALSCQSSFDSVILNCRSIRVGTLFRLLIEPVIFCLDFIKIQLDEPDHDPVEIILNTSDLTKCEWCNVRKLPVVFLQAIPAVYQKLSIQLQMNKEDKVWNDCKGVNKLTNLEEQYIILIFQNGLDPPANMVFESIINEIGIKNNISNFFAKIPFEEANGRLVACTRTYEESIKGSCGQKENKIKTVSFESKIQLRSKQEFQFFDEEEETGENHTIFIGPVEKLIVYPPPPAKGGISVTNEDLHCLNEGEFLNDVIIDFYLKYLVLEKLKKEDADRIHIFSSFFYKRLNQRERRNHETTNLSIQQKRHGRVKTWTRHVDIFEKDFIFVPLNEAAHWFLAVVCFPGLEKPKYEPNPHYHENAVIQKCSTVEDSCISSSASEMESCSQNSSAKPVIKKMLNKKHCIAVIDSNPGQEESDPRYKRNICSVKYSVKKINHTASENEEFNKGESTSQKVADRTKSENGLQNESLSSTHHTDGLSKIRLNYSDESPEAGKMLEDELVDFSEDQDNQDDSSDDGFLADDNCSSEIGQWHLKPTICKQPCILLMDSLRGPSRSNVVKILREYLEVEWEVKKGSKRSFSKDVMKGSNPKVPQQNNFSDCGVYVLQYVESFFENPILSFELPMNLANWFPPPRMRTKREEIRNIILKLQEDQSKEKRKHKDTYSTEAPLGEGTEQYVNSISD

[2] = system: HTB-178 lung tumor cells (EGFR+, PIK3CA+, RB1−, TP53−); test: Killing effects on HTB-178 tumor cells; format: cell-based, human; details: Assay 1(y); at 10 uM, 1st

Compound	cytotoxicity at 24 h, 10 uM (in vitro)	M = Huntington's poly-Q toxicity attenuation [1]	K = Huntington's poly-Q toxicity attenuation [1]	Potential targets: human protein targets (confirmed) (human protein targets)	SENP6 inhibition (SENP6)	Potential killing effects on HTB-178 tumor cells, 1st [2]
Cc1ccc(NC(=O)c2ccc([N+](=O)[O-])o2)cc1C [Gr-1F]	50%	0	0	CASP3, CFTR, GMNN, IDH1, IL1B, JAK2, SENP6, SENP7, SENP8, STAT1, and TDP1	~80%	
O=C(c1ccc([N+](=O)[O-])o1)N1CCc2ccccc21 [O13]		0	0	CASP3, DRD2, GMNN, HCRTR1, NR5A1, NR5A2, SENP6, SENP8, SSP1, and TDP1	~50%	YES;

Reference: US11413278B2, “Compounds and methods for promoting stress resistance” (priority 2015, dated 2022)
